Laboratory results from article PMC6359172, “Symmetrical Heterocyclic Cage Skeleton: Synthesis, Urease Inhibition Activity, Kinetic Mechanistic Insight, and Molecular Docking Analyses” (Molecules, 2019).
Read-outs that look alike come from different tables or passages of the source.

Biological target: T1, jack bean urease (Canavalia ensiformis, UniProt P07374)
T1 construct: purchased Sigma (St. Louis, MO, USA)
Test: biochemical
Description: The urease activity was determined by measuring the amount of ammonia produced with the indophenols method previously described. The reaction mixtures, comprising 20 µL of enzyme (jack bean urease, 5 U/mL) and 20 μL of test compounds in 50 μL buffer (100 mM urea, 0.01 M K2HPO4, 1 mM EDTA, and 0.01 M […], pH 8.2), were incubated for 30 min at 37 °C in a 96-well plate. Briefly, 50 μL each of phenol reagents (1%, w/v phenol and 0.005%, w/v sodium nitroprusside) and 50 μL of alkali reagent (0.5%, w/v NaOH and 0.1% active chloride NaOCl) were added to each well. The absorbance at 625 nm was measured after 10 min, using a microplate reader (OPTI Max, Tunable). All reactions were performed in triplicate. The urease inhibition activities were calculated according to the following formula:Urease inhibition activity (%) = (ODcontrol − ODsample × 100)/ODcontrol where ODcontrol and ODsample represents the optical densities in the absence and presence of the sample, respectively. Thiourea was used as the standard inhibitor for urease.

T1 sequence (P07374 whole entry, looked up): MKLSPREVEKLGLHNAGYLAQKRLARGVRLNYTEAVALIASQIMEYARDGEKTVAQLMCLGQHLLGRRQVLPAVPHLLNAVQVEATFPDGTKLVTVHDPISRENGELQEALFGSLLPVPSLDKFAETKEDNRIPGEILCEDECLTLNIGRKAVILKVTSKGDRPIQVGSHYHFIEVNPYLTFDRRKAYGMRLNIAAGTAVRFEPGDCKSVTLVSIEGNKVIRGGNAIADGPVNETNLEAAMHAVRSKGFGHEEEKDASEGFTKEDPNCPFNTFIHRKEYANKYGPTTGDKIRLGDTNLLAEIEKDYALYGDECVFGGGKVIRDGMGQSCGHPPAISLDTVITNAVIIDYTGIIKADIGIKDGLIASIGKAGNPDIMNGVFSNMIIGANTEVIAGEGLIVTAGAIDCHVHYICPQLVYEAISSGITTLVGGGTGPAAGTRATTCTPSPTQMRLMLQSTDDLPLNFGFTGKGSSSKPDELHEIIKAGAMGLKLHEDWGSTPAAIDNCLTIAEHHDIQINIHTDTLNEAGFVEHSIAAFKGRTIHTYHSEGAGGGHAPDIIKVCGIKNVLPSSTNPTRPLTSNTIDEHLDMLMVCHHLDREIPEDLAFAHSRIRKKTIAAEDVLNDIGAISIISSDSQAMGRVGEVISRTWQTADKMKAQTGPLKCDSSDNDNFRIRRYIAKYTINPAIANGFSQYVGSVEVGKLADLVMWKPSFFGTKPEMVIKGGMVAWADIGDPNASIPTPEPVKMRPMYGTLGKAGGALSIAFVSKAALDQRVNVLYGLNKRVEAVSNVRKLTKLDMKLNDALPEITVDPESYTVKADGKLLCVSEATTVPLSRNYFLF

Row | SMILES | IC50 (jack bean urease 5 U/mL, 100 mM urea, pH 8.2, 30 min 37 °C, read-out: Urease Inhibition IC50) [µM] | IC50 [µM]
1 | NC(N)=S [Thio-Urea, Thiourea, reference compound] | 20.7 ± 0.45 | –
2 | COc1ccc(-c2n[nH]c(=O)n2/N=C/c2cccc(/C=N/n3c(-c4ccc(OC)cc4)n[nH]c3=O)n2)cc1 [Compound 3] | – | 18.9 ± 1.81
3 | COc1ccc(-c2n[nH]c(=S)n2/N=C/c2cccc(/C=N/n3c(-c4ccc(OC)cc4)n[nH]c3=S)n2)cc1 [Compound 4] | – | 29.3 ± 3.32
